Patent publication US5912266A, “Beta2 integrin cell adhesion molecule inhibitors” (American Home Products Corporation, priority 1997, dated 1999)
“And” between values parts separate entries of the source, which are not always exact repeats. Identical values can stand only once. Like-named read-outs stand apart in the source and are kept apart here.

Columns and labels:
[1] = MTT cytotoxicity assay, U937 cells; format: cell-based, human; settings: human, u937 cells, U937, 30 min., read-out: % Inhibition MTT Reduction
Source text: (§1) This experiment describes the affect of asperlin on cellular respiration (mitochondrial activity) by measuring the reduction of the tetrazolium salt MTT to formazan crystals (Moseman, et al). This assay served as a control to ensure that the decrease in the fluorescence observed in Example I, Table I, was not the result of the fluorescent dye leaking from the cells due to disruption of the cell membrane. To address this issue, the mitochondrial activity of β2 and β1 integrin expressing cells in the presence of asperlin was quantitated using a commercially available MTT cytotoxicity kit (Promega No. G4100).
(§2) HL60 and U937 cells were purchased from the American Type Culture Collection (ATCC) and maintained in RPMI 1640 culture media containing 10% heat inactivated fetal bovine serum (refer to Example I, materials). HL60 cells were used between passages 20 and 30. HL60 cells were stimulated by a four day exposure to DMSO, as described in Example I, materials. Falcon round bottom tissue culture plates (No. 3077) were used for the experiment. All remaining reagents were supplied in Promega's MTT cytotoxicity kit (Catalog No. G4100).
(§3) The assay procedure described in the Promega MTT kit was used with the following changes.
(§4) Asperlin was solubilized in 100% DMSO at a concentration of 50 mg/ml. The 50 mg/ml asperlin stock was diluted to 400 μg/ml with culture media containing 5% fetal bovine serum (FBS). This solution was further diluted to 80 and 20 μg/ml with culture media supplemented with 5% FBS plus 2% DMSO. 50 μl of the 20 and 80 μg/ml asperlin solutions were added to wells of a sterile, round bottom 96 well assay plate. Control wells received 50 μl of culture media containing 5% FBS plus 2% DMSO. Duplicate assay wells were prepared such that U937 and HL60 cells could be evaluated on the same plate. The cell density of β1 integrin expressing U937, and β2 integrin expressing HL60 cell cultures were determined using a hemacytometer.
(§5) Cells were harvested by centrifuging for 5 minutes at 1000 rpm, room temperature, in a Sorvall RT600 bench-top centrifuge. The HL60 cell pellet was resuspended in fresh culture media at a concentration of 5×10^6 cells/ml. The U937 cell pellet was resuspended in fresh culture media at a concentration of 2.5×10^6 cells/ml. 2.5×10^5 β2 integrin expressing HL60 cells, contained in 50 μl, were added to wells of the assay plate using a multichannel pipettor. In duplicate assay wells, 1.25×10^5 β1 integrin expressing U937 cells, contained in 50 μl, were added to wells of the assay plate using a multichannel pipettor. Assay plates were incubated for either 30 minutes, 60 minutes, or 4 hours in a 37° C. 5% CO2, humidified incubator.
(§6) At the appropriate time point, 15 μl of MTT reagent, supplied in the Promega assay kit, was added to each well using a multichannel pipettor. Assay plates were incubated in the 37° C. incubator, as just described, for two hours. The MTT reduction reaction was quenched, and the visible formazan crystals were solubilized by adding exactly 100 μl of Promega's solubilization buffer to each well. Assay plates were incubated for at least 18 hours in the same 37° C. incubator just described to solubilize the formazan reagent. Assay plates were removed from the incubator and allowed to cool to room temperature. The optical density (OD) of each well of the assay plate was determined using a microtiter plate reader (Flow Labs) set at a wavelength of 580 nm with a correction wavelength of 630 nm.
(§7) Replicate sample ODs were average. The percentage of inhibition of cellular respiration (mitochondrial activity) by asperlin was quantitated by the following equation:
(§8) % Inhibition=(1-(Sample OD.div.Average Control OD))×100

U937 cells = experiment: MTT cytotoxicity assay, U937 cells; format: cell-based, human; settings: for Average Optical Density / Optical Density: U937, 30 min.; for Optical Density: single well, 580 nm
Source text: as §1, §2, §3, §4, §5, §6, §7, §8

With CC(=O)OC1C=CC(=O)OC1C1OC1C [Asperlin, 6,7-Anhydro-2,3,8-trideoxy-D-galacto-oct-2-enoic acidδ-lactone 4-acetate] the cytotoxicity at 0.5 h ([1]; Asperlin 10 μg/mL) was 0%, the cytotoxicity at 0.5 h ([1]; Asperlin 40 μg/mL) was 11% and the “Average Optical Density” value (U937 cells; Asperlin 10 μg/mL) was 1.532. The “Optical Density” value (U937 cells; Asperlin 10 μg/mL) was 1.410 and 1.601 and 1.584, the “Average Optical Density” value (U937 cells; Asperlin 40 μg/mL) was 1.386 and the “Optical Density” value (U937 cells; Asperlin 40 μg/mL) was 1.362 and 1.352 and 1.391. The “Cytotoxicity (in words)” value (U937 cells; β1 integrin expressing U937 cells) was “not cytotoxic”.
